Assay results published in ChEMBL document CHEMBL6078696, “Nanomolar activity of coumarin-3-thiosemicarbazones targeting Trypanosoma cruzi cruzain and the T. brucei cathepsin L-like protease” (Eur J Med Chem, 2025).

Legend:
[1] = tested on: Trypanosoma brucei; experiment: Antitrypanosomal activity against Trypanosoma brucei trypomastigotes assessed as parasite growth inhibition at 50 uM incubated for 72 hrs by resazurin dye based assay relative to control; format: functional
[2] = molecular target: Cruzipain (Trypanosoma cruzi) (UniProt P25779); experiment: Inhibition of recombinant Trypanosoma cruzi CRZ using Z-Phe-Arg-aminomethylcoumarin as substrate at 50 uM preincubated for 10 mins followed by substrate addition by fluorimetry relative to control
Cruzipain (Trypanosoma cruzi), sequence (P25779 123-467 limits assumed): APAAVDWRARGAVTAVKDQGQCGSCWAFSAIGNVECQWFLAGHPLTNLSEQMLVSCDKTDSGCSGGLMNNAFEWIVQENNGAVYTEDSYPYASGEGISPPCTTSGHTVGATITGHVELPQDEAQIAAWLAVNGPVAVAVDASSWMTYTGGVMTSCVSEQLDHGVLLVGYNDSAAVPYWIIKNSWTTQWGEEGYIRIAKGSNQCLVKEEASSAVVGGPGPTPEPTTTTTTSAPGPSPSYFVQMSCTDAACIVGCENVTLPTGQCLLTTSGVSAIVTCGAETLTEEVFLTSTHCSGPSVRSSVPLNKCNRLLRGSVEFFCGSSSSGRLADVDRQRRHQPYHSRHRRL

[3] = tested on: Trypanosoma brucei; experiment: Inhibition of recombinant Trypanosoma brucei CATL using Z-Phe-Arg-aminomethylcoumarin as substrate at 50 uM preincubated for 10 mins followed by substrate addition by fluorimetry relative to control
[4] = tested on: Trypanosoma cruzi; experiment: Antitrypanosomal activity against intracellular Trypanosoma cruzi amastigotes infected in mouse C2C12 cells at 10 uM incubated for 48 hrs by DAPI staining based analysis relative to control; format: functional
[5] = Cytotoxicity against mouse C2C12 cells at 10 uM relative to control; format: toxicity, cell-based; details: read-out: INH
[6] = Cytotoxicity against HEK293 cells at 50 uM incubated for 48 hrs by resazurin reduction assay relative to control; format: toxicity, cell-based; details: human, read-out: INH
[7] = molecular target: T1, Cruzipain (Trypanosoma cruzi, UniProt P25779); experiment: Inhibition of recombinant Trypanosoma cruzi CRZ using Z-Phe-Arg-aminomethylcoumarin as substrate preincubated for 10 mins followed by substrate addition by fluorimetry
T1 sequence (P25779 whole entry): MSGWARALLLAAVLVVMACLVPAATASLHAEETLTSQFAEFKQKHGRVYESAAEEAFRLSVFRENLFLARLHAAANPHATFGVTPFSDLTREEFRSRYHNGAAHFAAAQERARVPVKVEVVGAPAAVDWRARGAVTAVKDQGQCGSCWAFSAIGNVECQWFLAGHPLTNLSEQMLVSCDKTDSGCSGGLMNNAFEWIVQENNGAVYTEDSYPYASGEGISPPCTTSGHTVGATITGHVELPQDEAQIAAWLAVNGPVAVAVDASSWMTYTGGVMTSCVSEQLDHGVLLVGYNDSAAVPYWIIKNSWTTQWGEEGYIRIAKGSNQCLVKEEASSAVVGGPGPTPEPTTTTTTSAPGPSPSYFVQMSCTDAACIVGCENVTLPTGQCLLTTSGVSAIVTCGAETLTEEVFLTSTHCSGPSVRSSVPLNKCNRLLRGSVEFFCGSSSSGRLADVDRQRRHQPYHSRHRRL

[8] = Inhibition of recombinant Trypanosoma brucei CATL using Z-Phe-Arg-aminomethylcoumarin as substrate preincubated for 10 mins followed by substrate addition by fluorimetry
[9] = molecular target: Cruzipain (Trypanosoma cruzi) (UniProt P25779); experiment: Potency index, ratio of FN-27 IC50 to test compound IC50 recombinant Trypanosoma cruzi CRZ
[10] = tested on: Trypanosoma brucei; experiment: Potency index, ratio of FN-27 IC50 to test compound IC50 recombinant Trypanosoma brucei CATL
[11] = Cytotoxicity against HEK293 cells incubated for 48 hrs by resazurin reduction assay; format: toxicity, cell-based; details: human
[12] = tested on: Trypanosoma brucei; experiment: Antitrypanosomal activity against Trypanosoma brucei trypomastigotes assessed as parasite growth inhibition incubated for 72 hrs by resazurin dye based assay; format: functional, organism-based
[13] = Selectivity index, ratio of CC50 for cytotoxicity against HEK293 cells to EC50 for Trypanosoma brucei trypomastigotes; format: toxicity, cell-based; details: human, read-out: Ratio CC50/EC50
[14] = molecular target: T1, Cruzipain; experiment: Inhibition of Trypanosoma cruzi CRZ
[15] = Inhibition of Trypanosoma brucei CATL
[16] = tested on: Trypanosoma cruzi; experiment: Antitrypanosomal activity against Trypanosoma cruzi amastigotes infected in cell model; format: functional, organism-based

Row | SMILES | inhibition at 50 µM [1] [%] | inhibition [2] [%] | inhibition [3] [%] | inhibition at 10 µM [4] [%] | cytotoxicity at 10 µM [5] [%] | cytotoxicity at 48 h, 50 µM [6] [%] | further results
1 | COc1cc(OC)c2cc(C(=O)NCCc3c[nH]c4ccccc34)c(=O)oc2c1 | 43 | 25 | 15 | 13 | 0 | 31 | –
2 | C/C(=N\NC(N)=S)c1cc2ccc(C)cc2oc1=O | 23 | 98 | 97 | 52 | 0 | 10 | IC50 [7]: 0.2 µM; IC50 [8]: 0.022 µM; Ratio IC50 [9]: 72; Ratio IC50 [10]: 92; CC50 at 48 h [11]: 114 µM
3 | CC(C)C[C@H](NC(=O)[C@H](Cc1ccccc1)NC(=O)c1cnccn1)B(O)O [BORTEZOMIB] | – | – | – | – | – | 100 | –
4 | C/C(=N\NC(N)=S)c1cc2cc(Br)ccc2oc1=O | 71 | 92 | 87 | 57 | 12 | 13 | IC50 [7]: 0.145 µM; IC50 [8]: 0.698 µM; EC50 [12]: 43.6 µM; CC50 at 48 h [11]: 52.3 µM; selectivity ratio [13]: ~1.2
5 | COc1ccc2cc(C(=O)NCc3ccccc3)c(=O)oc2c1 | 45 | – | – | 21 | 0 | 1 | –
6 | O=C(NCc1ccccc1)c1cc2ccccc2oc1=O | 38 | 1 | 7 | 6 | 10 | 3 | –
7 | CC(C)C[C@H](NC(=O)[C@H]1O[C@@H]1C(=O)O)C(=O)NCCCCN=C(N)N | – | – | 99 | – | – | – | –
8 | C/C(=N\NC(N)=S)c1cc2ccccc2oc1=O | 40 | 97 | 88 | 49 | 0 | 11 | IC50 [7]: 0.068 µM; IC50 [8]: 0.073 µM
9 | O=C(NCCc1c[nH]c2ccccc12)c1cc2cc(I)ccc2oc1=O | 39 | 7 | 18 | 7 | 1 | 41 | –
10 | COc1ccc2cc(C(=O)NCCc3c[nH]c4ccccc34)c(=O)oc2c1 | 59 | – | – | 27 | 0 | 81 | CC50 at 48 h [11]: 32.1 µM
11 | COc1cc(OC)c2cc(C(=O)NCc3ccccc3)c(=O)oc2c1 | 3 | – | – | 17 | 0 | 23 | –
12 | O=C(c1cc2cc(Cl)cc(Cl)c2oc1=O)N1CCN(c2ccccc2)CC1 | 24 | 6 | 12 | 25 | 5 | 12 | –
13 | COc1ccc2cc(C(=O)N3CCN(c4ccccc4)CC3)c(=O)oc2c1 | 43 | 5 | 29 | 27 | 1 | 11 | –
14 | O=C(c1cc2cc(I)ccc2oc1=O)N1CCN(c2ccccc2)CC1 | 12 | 2 | 19 | 5 | 0 | 13 | –
15 | O=C(Cn1ccnc1[N+](=O)[O-])NCc1ccccc1 [BENZNIDAZOLE] | – | – | – | 77 | 0 | – | –
16 | N=C(N)c1ccc(OCCCCCOc2ccc(C(=N)N)cc2)cc1 [PENTAMIDINE] | 100 | – | – | – | – | – | –
17 | O=C(c1cc2ccccc2oc1=O)N1CCN(c2ccccc2)CC1 | 17 | 48 | 34 | 8 | 0 | 11 | –
18 | COc1cc(OC)c2cc(C(=O)N3CCN(c4ccccc4)CC3)c(=O)oc2c1 | 15 | 3 | 24 | 2 | 0 | 18 | –
19 | O=C(Nc1ccccc1)c1cc2ccccc2oc1=O | 52 | 9 | 17 | 3 | 1 | 0 | –
20 | O=C(NCCc1c[nH]c2ccccc12)c1cc2ccccc2oc1=O | 63 | 10 | 25 | 24 | 16 | 76 | CC50 at 48 h [11]: 19.6 µM
21 | O=C(NCCc1c[nH]c2ccccc12)c1cc2cc(Cl)cc(Cl)c2oc1=O | 44 | 22 | 9 | 23 | 0 | 17 | –
22 | CCN(CC)c1ccc2cc(/C(C)=N/NC(N)=S)c(=O)oc2c1 | 56 | 30 | 77 | 44 | 11 | 80 | IC50 [7]: 0.046 µM; CC50 at 48 h [11]: 42.7 µM
23 | COc1cccc2cc(/C(C)=N/NC(N)=S)c(=O)oc12 | – | – | – | – | – | – | IC50 [14]: 14.4 µM; IC50 [15]: 2 µM; EC50 [16]: 5.5 µM
